Test results taken from publication PMC10344917, “Affinity and cooperativity modulate ternary complex formation to drive targeted protein degradation” (Nature Communications, 2023).
Like-named read-outs stand apart in the source and are kept apart here.

Tests used:
SMARCA2^BD = target: T1, SMARCA2^BD (Homo sapiens, UniProt P51531); test: SPR binary binding of PROTAC to SMARCA2-functionalized surface; conditions: 1:1 Langmuir binding model, SEM N=3 or SD N=2, read-out: KTP (binary affinity PROTAC / SMARCA2)
T1 construct: SMARCA2^BD 1373–1511 ∆1400–1417; made in house
T1 sequence (P51531 1373-1493 isoform P51531-2): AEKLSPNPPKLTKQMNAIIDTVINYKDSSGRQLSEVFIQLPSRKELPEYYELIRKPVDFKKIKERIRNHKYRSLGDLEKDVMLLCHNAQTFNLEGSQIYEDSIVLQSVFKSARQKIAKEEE
Description: PROTACs (10 mM stocks in 100% DMSO) were diluted to 400 nM in a running buffer (20 mM Tris pH 7.5, 200 mM NaCl, 0.02% P20). This stock solution was then serially diluted in the running buffer containing final 2% DMSO. Solutions were injected in multi-cycle kinetic format without regeneration (contact time 60 s, flow rate 80 μL/min, dissociation time 120 s) using a stabilization period of 30 s and syringe wash (50% DMSO) between injections onto a high-density VBC-functionalized surface. For SMARCA2 analysis, biotinylated proteins were introduced on a Series S streptavidin (SA) sensor chip at high-density (3000-4000 RU).
(§1) Raw sensorgrams were processed by performing double reference subtraction, solvent correction, and analysis was done using Biacore Insight Evaluation Software. Kinetic analysis was performed by fitting data to a 1:1 Langmuir interaction model and a steady-state affinity model was used to evaluate equilibrium binding affinity.

SMARCA2-NanoLuc = target: T2, SMARCA2-NanoLuc (Homo sapiens, UniProt P51531); test: NanoBRET target engagement assay, live and permeabilized HEK293 cells (SMARCA2); format: cell-based; conditions: SMARCA2 NanoBRET TE
T2 construct: expressed in transfected cells; host or cells: HEK293
T2 sequence (P51531 whole entry): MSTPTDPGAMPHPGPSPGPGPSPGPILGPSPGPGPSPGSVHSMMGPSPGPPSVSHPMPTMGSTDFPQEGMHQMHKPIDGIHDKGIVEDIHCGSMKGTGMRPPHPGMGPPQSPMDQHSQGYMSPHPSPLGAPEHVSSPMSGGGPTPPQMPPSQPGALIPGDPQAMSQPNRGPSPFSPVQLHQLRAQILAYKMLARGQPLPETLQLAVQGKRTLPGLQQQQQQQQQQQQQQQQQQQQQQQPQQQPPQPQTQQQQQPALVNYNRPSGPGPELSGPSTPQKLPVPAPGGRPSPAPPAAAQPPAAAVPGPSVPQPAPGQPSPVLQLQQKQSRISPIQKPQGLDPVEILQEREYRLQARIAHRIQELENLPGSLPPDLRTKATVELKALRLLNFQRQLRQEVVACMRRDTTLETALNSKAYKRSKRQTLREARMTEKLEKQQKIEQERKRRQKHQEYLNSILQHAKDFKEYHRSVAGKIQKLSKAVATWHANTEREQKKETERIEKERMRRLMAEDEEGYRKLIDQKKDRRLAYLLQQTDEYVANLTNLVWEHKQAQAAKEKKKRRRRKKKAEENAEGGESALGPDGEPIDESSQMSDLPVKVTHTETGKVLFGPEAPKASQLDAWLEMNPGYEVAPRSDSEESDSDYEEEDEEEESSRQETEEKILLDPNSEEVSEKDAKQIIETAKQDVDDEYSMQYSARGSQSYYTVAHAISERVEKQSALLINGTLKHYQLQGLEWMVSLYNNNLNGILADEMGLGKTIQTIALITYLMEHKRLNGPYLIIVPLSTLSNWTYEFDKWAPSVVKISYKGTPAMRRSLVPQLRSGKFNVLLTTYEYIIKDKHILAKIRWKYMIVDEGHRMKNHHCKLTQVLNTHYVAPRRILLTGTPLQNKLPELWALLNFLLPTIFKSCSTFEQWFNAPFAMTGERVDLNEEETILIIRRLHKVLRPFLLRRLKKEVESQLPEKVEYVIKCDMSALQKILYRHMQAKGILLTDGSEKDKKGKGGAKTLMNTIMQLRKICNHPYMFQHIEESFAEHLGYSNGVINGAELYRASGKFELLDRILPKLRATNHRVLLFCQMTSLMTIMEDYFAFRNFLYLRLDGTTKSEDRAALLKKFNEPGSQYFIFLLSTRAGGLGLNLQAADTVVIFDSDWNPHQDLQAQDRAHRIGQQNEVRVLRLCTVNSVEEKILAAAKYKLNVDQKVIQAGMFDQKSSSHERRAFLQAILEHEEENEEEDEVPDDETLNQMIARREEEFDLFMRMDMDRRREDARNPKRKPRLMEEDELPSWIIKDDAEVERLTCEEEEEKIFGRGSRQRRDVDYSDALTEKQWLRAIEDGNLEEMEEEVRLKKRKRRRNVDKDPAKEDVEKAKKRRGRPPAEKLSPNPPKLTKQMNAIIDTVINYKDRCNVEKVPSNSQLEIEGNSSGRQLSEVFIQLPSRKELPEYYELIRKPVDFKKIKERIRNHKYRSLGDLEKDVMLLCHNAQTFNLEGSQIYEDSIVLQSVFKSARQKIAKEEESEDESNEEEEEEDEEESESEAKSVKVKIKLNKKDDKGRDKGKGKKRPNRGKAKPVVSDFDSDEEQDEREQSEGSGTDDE
Description: We employed a NanoBRET-based target engagement (TE) assay as reported earlier^7 for evaluating PROTACs relative permeability. In summary, live and permeabilized HEK293 cells with SMARCA2 or BRD4-NanoLuc were used for measuring IC50 values of different PROTACs. The relative shift in the IC50 was evaluated as relative binding affinity (RBA) by taking the ratio of IC50 values of live and permeabilized cells. Availability index (AI), which is a surrogate for permeability can be calculated by taking a ratio of RBA of compounds to permeable benchmark molecules. We used SMARCA bromodomain binding ligand^8 for SMARCA2 PROTACs and JQ1^9, 10 for BRD4 PROTACs as benchmark molecules.
Relative Binding Affinity (RBA) = Live-cell TE IC50 / Permeabilized-cell TE IC50
Availability Index (AI) = RBAtest cmpd / RBApermeable benchmark
Availability Index (AI) greater than one is indicative of reduced permeability compared to the benchmark.

[1] = target: T3, VBC / SMARCA2^BD ternary complex (Homo sapiens, UniProt P40337+P51531); test: SPR ternary complex binding, VBC surface with preformed PROTAC/SMARCA2 bromodomain complex; conditions: for Kd: SPR, VHL, PROTAC, error SEM, N = 3, read-out: KLPT (ternary complex binding affinity)
T3 construct: VHL (54-213), ElonginB (17-112) ElonginC (1-104); SMARCA2^BD 1373–1511 ∆1400–1417; His6 (N, cleaved yes); made in house
T3 sequence (P40337 54-213): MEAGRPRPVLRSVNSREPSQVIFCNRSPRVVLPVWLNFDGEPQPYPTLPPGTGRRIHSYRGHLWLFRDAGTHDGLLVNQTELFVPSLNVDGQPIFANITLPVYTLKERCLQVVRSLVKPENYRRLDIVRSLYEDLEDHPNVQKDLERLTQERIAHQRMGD
T3 sequence (P51531 other isoform, or with tags, fused parts or gaps): as the sequence (P51531 1373-1493 isoform P51531-2) above
T3 sequence (Q15370 1-104, further chain): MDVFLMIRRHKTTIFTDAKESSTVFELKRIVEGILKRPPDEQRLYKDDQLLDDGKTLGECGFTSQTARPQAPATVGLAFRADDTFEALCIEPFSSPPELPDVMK
T3 sequence (Q15369 17-112, further chain): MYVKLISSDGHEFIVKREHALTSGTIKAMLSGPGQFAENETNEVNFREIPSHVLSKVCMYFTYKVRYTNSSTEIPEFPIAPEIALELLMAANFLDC
Description: (§2) SPR experiments were performed on a Biacore 8 K or T200 instrument (Cytiva). […] The running buffer during immobilization was PBS with 0.005% P20. Either high-density (3000-4000 RU) or low-density (300-400 RU) VBC-functionalized surfaces were created, followed by equilibration in the running buffer for 3 h.
PROTACs (10 mM in 100% DMSO) were initially prepared at 200 nM in a running buffer (20 mM Tris pH 8.0, 250 mM NaCl, 1 mM TCEP, 0.01% P20, 0.2 mg/ml BSA) with a concentration of 2% DMSO. This solution was mixed at 1:1 ratio with a solution of 5 μM of the SMARCA2 or BRD4 bromodomain protein in the running buffer. This complex was then serially diluted in the running buffer containing 2.5 μM SMARCA2 or BRD4 and 2% DMSO (5-point five-fold serial dilution). For ternary experiments, solutions were injected sequentially in single-cycle kinetic format without regeneration (contact time 60 s, flow rate 80 μL/min, dissociation time 300 s) using a stabilization period of 60 s and syringe wash (50% DMSO) between injections onto a low-density VBC-functionalized surface.
as §1

VHL/EloB/EloC (VBC) = target: T4, VHL/EloB/EloC (VBC) (Homo sapiens, UniProt P40337); test: SPR binary binding of PROTAC to VBC-functionalized surface; conditions: SPR; error SEM, N = 3; read-out: KLP (binary binding affinity between E3 ligase VHL and PROTAC)
T4 construct: VHL (54-213), ElonginB (17-112) ElonginC (1-104); made in house
T4 sequence (Q15369 17-112): as the sequence (Q15369 17-112, further chain) above
T4 sequence (Q15370 1-104, further chain): as the sequence (Q15370 1-104, further chain) above
T4 sequence (P40337 54-213): as the sequence (P40337 54-213) above
Description: as §2
PROTACs (10 mM stocks in 100% DMSO) were diluted to 400 nM in a running buffer (20 mM Tris pH 7.5, 200 mM NaCl, 0.02% P20). This stock solution was then serially diluted in the running buffer containing final 2% DMSO. […] For SMARCA2 analysis, biotinylated proteins were introduced on a Series S streptavidin (SA) sensor chip at high-density (3000-4000 RU).
as §1

SMARCA2 = target: T5, SMARCA2 (Homo sapiens, UniProt P51531); test: SMARCA2 degradation time course in A375 cells (MSD); format: cell-based; conditions: single concentration at or near maximal activity
T5 construct: endogenous in cells; host or cells: A375
T5 sequence (P51531 whole entry): as the sequence (P51531 whole entry) above
From the text: This characteristic has been described as cooperativity (α > 1) and likely results from favorable PPIs present in the ternary complex. […] To measure the rate of protein degradation, we treated A375 cells with a single concentration of each PROTAC and measured the decrease in target abundance over time as shown in Figs. 4b and5b.
MSD electrochemiluminescence signals were subtracted by the average background signal from wells with lysis buffer alone. Normalized MSD values (POC) for individual compound treated wells were acquired by dividing background-subtracted assay signal by signal from vehicle control wells (cells + 0.1% DMSO) and multiplying by 100. This POC data was graphed using a nonlinear regression curve fit xy analysis and a log(inhibitor) vs response —variable slope (four parameter) model for dose response curves (Graphpad Prism 9, San Diego, CA, USA). To calculate area under the curve, all points on the curve were connected and vertical lines were drawn from each point down to y = 0, generating a series of trapezoids. The area of each trapezoid was determined using the equation A = (1/2)(h)(b1 + b2), where h = 1 (distance between points), b1 = POC of the first point and b2 = POC of the second point. The sum of all trapezoids provides an approximate area under the curve (AUC). For half-life (t1/2) determination in time course studies, a one-phase decay model was used for curve fitting and the time at which the curve crossed 50 POC was determined through interpolation (Graphpad Prism 9, San Diego, CA, USA). Additionally initial rate of degradation was determined by multiplying 100 with rate constant (τ = 0.693/t1/2).

[2] = live HEK293 cells, read-out: Live-Cell TE IC50
[3] = permeabilized HEK293 cells, read-out: Permeabilized-Cell TE IC50

| Kd (SMARCA2^BD) | IC50 (SMARCA2-NanoLuc; [2]) | IC50 (SMARCA2-NanoLuc; [3]) | α (cooperativity, KLP/KLPT) [1] | Kd [1] | Kd (VHL/EloB/EloC (VBC)) | Initial Degradation Rate (SMARCA2) | SMILES |
| --- | --- | --- | --- | --- | --- | --- | --- |
| 0.302 ± 0.08 µM | 0.98 µM | 0.74 µM | 0.55 | 0.108 ± 0.014 µM | 0.059 ± 0.005 µM | 0.25 %/min | Cc1ncsc1-c1ccc(CNC(=O)C2C[C@@H](O)CN2C(=O)C(NC(=O)C2(F)CC2)C(C)(C)C)c(OCCc2ccc(CN3CCN(c4cc(-c5ccccc5O)nnc4N)CC3)cc2)c1 (stereo in doubt) [Compound 11, (2R,4R)-N-(2-(4-((4-(3-amino-6-(2-hydroxyphenyl)pyridazin-4-yl)piperazin-1-yl)methyl)phenethoxy)-4-(4-methylthiazol-5-yl)benzyl)-1-((R)-2-(1-fluorocyclopropane-1-carboxamido)-3,3-dimethylbutanoyl)-4-hydroxypyrrolidine-2-carboxamide, reference compound] |
| 0.095 ± 0.0255 µM | 0.2 µM | 0.15 µM | 12.8 | 0.0047 ± 0.001 µM | 0.06 ± 0.003 µM | 1.9 %/min | Cc1ncsc1-c1ccc([C@H](C)NC(=O)[C@@H]2C[C@@H](O)CN2C(=O)[C@@H](NC(=O)c2ccnc(N3CCN(c4cc(-c5ccccc5O)nnc4N)CC3)c2)C(C)(C)C)cc1 [Compound 1, 2-(4-(3-Amino-6-(2-hydroxyphenyl)pyridazin-4-yl)piperazin-1-yl)-N-((S)-1-((2S,4R)-4-hydroxy-2-(((S)-1-(4-(4-methylthiazol-5-yl)phenyl)ethyl)carbamoyl)pyrrolidin-1-yl)-3,3-dimethyl-1-oxobutan-2-yl)isonicotinamide] |
| 0.196 ± 0.023 µM | 0.4 µM | 0.2 µM | 6.5 | 0.033 ± 0.004 µM | 0.21 ± 0.018 µM | 2.02 %/min | Cc1ncsc1-c1ccc([C@H](C)NC(=O)[C@@H]2C[C@@H](O)CN2C(=O)[C@@H](NC(=O)c2cccc(N3CCN(c4cc(-c5ccccc5O)nnc4N)CC3)n2)C(C)(C)C)cc1 [Compound 2, 6-(4-(3-Amino-6-(2-hydroxyphenyl)pyridazin-4-yl)piperazin-1-yl)-N-((S)-1-((2S,4R)-4-hydroxy-2-(((S)-1-(4-(4-methylthiazol-5-yl)phenyl)ethyl)carbamoyl)pyrrolidin-1-yl)-3,3-dimethyl-1-oxobutan-2-yl)picolinamide] |
| 0.232 ± 0.035 µM | 0.82 µM | 0.75 µM | 2.6 | 0.064 ± 0.007 µM | 0.166 ± 0.015 µM | 2.06 %/min | Cc1ncsc1-c1ccc([C@H](C)NC(=O)[C@@H]2C[C@@H](O)CN2C(=O)[C@@H](NC(=O)c2cccc(N3CCN(c4cc(-c5ccccc5O)nnc4N)CC3)c2)C(C)(C)C)cc1 [Compound 4, (2S,4R)-1-((S)-2-(3-(4-(3-Amino-6-(2-hydroxyphenyl)pyridazin-4-yl)piperazin-1-yl)benzamido)-3,3-dimethylbutanoyl)-4-hydroxy-N-((S)-1-(4-(4-methylthiazol-5-yl)phenyl)ethyl)pyrrolidine-2-carboxamide] |
| 0.206 ± 0.034 µM | 1.26 µM | 0.4 µM | 1.8 | 0.0468 ± 0.0067 µM | 0.0847 ± 0.005 µM | 1.9 %/min | Cc1ncsc1-c1ccc([C@H](C)NC(=O)[C@@H]2C[C@@H](O)CN2C(=O)[C@@H](NC(=O)c2csc(N3CCN(c4cc(-c5ccccc5O)nnc4N)CC3)n2)C(C)(C)C)cc1 [Compound 5, 2-(4-(3-Amino-6-(2-hydroxyphenyl)pyridazin-4-yl)piperazin-1-yl)-N-((S)-1-((2S,4R)-4-hydroxy-2-(((S)-1-(4-(4-methylthiazol-5-yl)phenyl)ethyl)carbamoyl)pyrrolidin-1-yl)-3,3-dimethyl-1-oxobutan-2-yl)thiazole-4-carboxamide] |
| 0.0142 ± 0.0016 µM | 1.41 µM | 0.09 µM | 2 | 0.0056 ± 0.002 µM | 0.011 ± 0.001 µM | 3.5 %/min | Cc1ncsc1-c1ccc([C@H](C)NC(=O)[C@@H]2C[C@@H](O)CN2C(=O)[C@@H](NC(=O)CN2CCN(c3cc(-c4ccccc4O)nnc3N)CC2)C(C)(C)C)cc1 [Compound 6, (2S,4R)-1-((S)-2-(2-(4-(3-Amino-6-(2-hydroxyphenyl)pyridazin-4-yl)piperazin-1-yl)acetamido)-3,3-dimethylbutanoyl)-4-hydroxy-N-((S)-1-(4-(4-methylthiazol-5-yl)phenyl)ethyl)pyrrolidine-2-carboxamide, reference compound] |
| 0.046 ± 0.0085 µM | 0.69 µM | 0.21 µM | 0.11 | 0.08 ± 0.006 µM | 0.009 ± 0.002 µM | 0.78 %/min | Cc1ncsc1-c1ccc([C@H](C)NC(=O)[C@@H]2C[C@@H](O)CN2C(=O)[C@@H](NC(=O)Cc2ccnc(N3CCN(c4cc(-c5ccccc5O)nnc4N)CC3)c2)C(C)(C)C)cc1 [Compound 7, (2S,4R)-1-((S)-2-(2-(2-(4-(3-Amino-6-(2-hydroxyphenyl)pyridazin-4-yl)piperazin-1-yl)pyridin-4-yl)acetamido)-3,3-dimethylbutanoyl)-4-hydroxy-N-((S)-1-(4-(4-methylthiazol-5-yl)phenyl)ethyl)pyrrolidine-2-carboxamide] |
